The values below come from patent EP2277860B1, “Compositions comprising sulfonated estolides and alkyl ester sulfonates, methods of making them, and compositions and processes employing them” (STEPAN COMPANY, priority 2009, dated 2011).

This data set in a line: CMC via the Wilhelmy plate technique. It counts as physicochemical. The procedure: Not to be bound by theory, surfactants with low CMC values tend to be more mild to enzymes based on low monomer concentrations in solution which interfere with enzyme stability. The measured CMC, via the Wilhelmy plate technique, of SHP is 30 mg/L while that of the sodium salt of AES is 80 mg/L and NaLAS is 900 mg/L.

Take “linear alkylbenzene sulfonic acid, sodium salt [NaLAS]”: the CMC is 900 mg/L.
